Test results as given in paper PMC4843002, “Identification of pyrazolopyridazinones as PDEδ inhibitors” (Nature Communications, 2016).

Experiments:
BxPC-3 cells = format: cell-based
Protocol: (§1) RTCA was performed using 16-well E-plates on the Dual Plate xCELLigence instrument (Roche Applied Science, Indianapolis, IN). This system measures a dimensionless parameter called cell index, which evaluates the ionic environment at an electrode/solution interface and integrates information on cell number. Depending on the cell line 5 × 10^3–1 × 10^4 cells were plated in each well of the 16-well plates in 200 μl of cell culture medium. After seeding, cells were allowed to settle for 30 min at room temperature before being inserted into the xCELLigence instrument in a humidified incubator at 37 °C with 10% CO2. For RTCA experiments assaying cells stably expressing the inducible shRNA transgene, cells were seeded onto the E-plates in medium supplemented with 200 ng ml^−1 doxycycline. For RTCA experiments, the cells were treated with Deltarasin or Deltazinone 1 after reaching a steady growth (24 h/48 h). The small-molecule inhibitors were added at indicated time points and in the indicated concentrations. […] Continuous impedance measurements were then monitored every 15 min for up to 200 h. All assays were performed in duplicates. The cell index was normalized to 1 at the time point of drug administration. […]

PANC-1 cells = format: cell-based
Protocol: as §1

A1 (h) = biological target: T1, A1 (h) (Homo sapiens, UniProt P30542); assay: Cerep binding, antagonist radioligand; conditions: read-out: % Inhibition of Control Specific Binding
T1 construct: purchased Eurofins Pharma Discovery Services (CEREP diversity panel)
T1 sequence (P30542 whole entry): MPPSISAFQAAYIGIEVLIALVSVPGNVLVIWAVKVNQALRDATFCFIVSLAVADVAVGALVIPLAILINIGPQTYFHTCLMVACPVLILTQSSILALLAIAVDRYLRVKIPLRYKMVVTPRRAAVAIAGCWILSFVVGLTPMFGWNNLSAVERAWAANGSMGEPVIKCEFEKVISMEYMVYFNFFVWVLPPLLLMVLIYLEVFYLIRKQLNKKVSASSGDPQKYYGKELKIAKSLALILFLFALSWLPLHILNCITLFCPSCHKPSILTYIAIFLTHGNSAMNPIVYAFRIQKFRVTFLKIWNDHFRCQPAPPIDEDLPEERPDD

A3 (h) = biological target: T2, A3 (h) (Homo sapiens, UniProt P0DMS8); assay: Cerep binding, agonist radioligand; conditions: read-out: % Inhibition of Control Specific Binding
T2 construct: purchased Eurofins Pharma Discovery Services (CEREP diversity panel)
T2 sequence (P0DMS8 whole entry): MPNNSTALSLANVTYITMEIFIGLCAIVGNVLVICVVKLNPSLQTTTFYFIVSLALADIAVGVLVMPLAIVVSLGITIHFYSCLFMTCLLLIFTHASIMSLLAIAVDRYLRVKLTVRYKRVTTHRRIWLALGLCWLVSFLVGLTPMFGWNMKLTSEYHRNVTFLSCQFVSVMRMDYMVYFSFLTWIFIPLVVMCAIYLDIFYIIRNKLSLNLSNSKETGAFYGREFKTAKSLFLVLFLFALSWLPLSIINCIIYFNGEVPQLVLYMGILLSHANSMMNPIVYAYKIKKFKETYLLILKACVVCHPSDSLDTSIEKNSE

alpha 1 (non-selective) = assay: Cerep binding, antagonist radioligand; conditions: 5 µM
alpha 2 (non-selective) = assay: Cerep binding, antagonist radioligand; conditions: 5 µM
beta 1 (h) = biological target: T3, beta 1 (h) (Homo sapiens, UniProt P08588); assay: Cerep binding, agonist radioligand; conditions: read-out: % Inhibition of Control Specific Binding
T3 construct: purchased Eurofins Pharma Discovery Services (CEREP diversity panel)

BZD (central) = assay: Cerep binding, agonist radioligand; conditions: 5 µM
CB1 (h) = biological target: T4, CB1 (h) (Homo sapiens, UniProt P21554); assay: Cerep binding, agonist radioligand; conditions: read-out: % Inhibition of Control Specific Binding
T4 construct: purchased Eurofins Pharma Discovery Services (CEREP diversity panel)
T4 sequence (P21554 whole entry): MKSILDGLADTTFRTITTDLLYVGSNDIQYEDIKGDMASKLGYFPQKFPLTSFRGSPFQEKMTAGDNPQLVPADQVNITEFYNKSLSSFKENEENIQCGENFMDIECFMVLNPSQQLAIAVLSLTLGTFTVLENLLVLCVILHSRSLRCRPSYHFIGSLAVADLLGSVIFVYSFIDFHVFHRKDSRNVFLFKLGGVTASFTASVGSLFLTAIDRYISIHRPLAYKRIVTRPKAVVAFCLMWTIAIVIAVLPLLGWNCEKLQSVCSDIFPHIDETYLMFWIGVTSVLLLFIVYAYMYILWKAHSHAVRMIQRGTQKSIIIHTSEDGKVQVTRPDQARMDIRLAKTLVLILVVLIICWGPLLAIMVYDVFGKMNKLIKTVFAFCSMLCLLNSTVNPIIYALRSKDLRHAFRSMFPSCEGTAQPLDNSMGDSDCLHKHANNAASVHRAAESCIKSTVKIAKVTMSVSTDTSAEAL

CRF1 (h) = biological target: T5, CRF1 (h) (Homo sapiens, UniProt P34998); assay: Cerep binding, agonist radioligand; conditions: read-out: % Inhibition of Control Specific Binding
T5 construct: purchased Eurofins Pharma Discovery Services (CEREP diversity panel)

D1 (h) = biological target: T6, D1 (h) (Homo sapiens, UniProt P21728); assay: Cerep binding, antagonist radioligand; conditions: read-out: % Inhibition of Control Specific Binding
T6 construct: purchased Eurofins Pharma Discovery Services (CEREP diversity panel)
T6 sequence (P21728 whole entry): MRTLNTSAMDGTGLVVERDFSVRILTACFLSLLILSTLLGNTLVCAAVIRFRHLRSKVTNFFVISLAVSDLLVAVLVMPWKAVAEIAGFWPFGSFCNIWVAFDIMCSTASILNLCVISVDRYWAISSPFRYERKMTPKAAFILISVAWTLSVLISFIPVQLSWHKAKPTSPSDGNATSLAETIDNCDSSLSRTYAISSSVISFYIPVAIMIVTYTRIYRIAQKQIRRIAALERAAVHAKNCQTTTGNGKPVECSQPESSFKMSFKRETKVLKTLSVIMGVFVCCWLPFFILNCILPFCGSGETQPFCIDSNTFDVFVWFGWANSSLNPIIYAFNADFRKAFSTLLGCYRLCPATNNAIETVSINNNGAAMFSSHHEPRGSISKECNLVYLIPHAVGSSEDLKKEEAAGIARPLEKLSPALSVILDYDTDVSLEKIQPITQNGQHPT

AMPA = assay: Cerep binding, agonist radioligand; conditions: 5 µM
NMDA = assay: Cerep binding, antagonist radioligand; conditions: 5 µM
H2 (h) = biological target: T7, H2 (h) (Homo sapiens, UniProt P25021); assay: Cerep binding, antagonist radioligand; conditions: read-out: % Inhibition of Control Specific Binding
T7 construct: purchased Eurofins Pharma Discovery Services (CEREP diversity panel)

BLT1 (LTB4) (h) = biological target: T8, BLT1 (LTB4) (h) (Homo sapiens, UniProt Q15722); assay: Cerep binding, agonist radioligand; conditions: read-out: % Inhibition of Control Specific Binding
T8 construct: purchased Eurofins Pharma Discovery Services (CEREP diversity panel)
T8 sequence (Q15722 whole entry): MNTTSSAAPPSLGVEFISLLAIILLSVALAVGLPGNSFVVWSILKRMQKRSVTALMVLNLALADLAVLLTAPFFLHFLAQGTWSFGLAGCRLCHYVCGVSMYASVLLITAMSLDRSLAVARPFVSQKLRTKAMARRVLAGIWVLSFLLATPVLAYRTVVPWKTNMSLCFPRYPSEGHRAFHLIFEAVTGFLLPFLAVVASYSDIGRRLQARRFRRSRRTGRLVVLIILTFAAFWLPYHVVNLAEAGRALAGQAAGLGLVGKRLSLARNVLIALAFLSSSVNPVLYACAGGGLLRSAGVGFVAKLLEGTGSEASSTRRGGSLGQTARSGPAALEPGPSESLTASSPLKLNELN

MT1 (ML1A) (h) = biological target: T9, MT1 (ML1A) (h) (Homo sapiens, UniProt P48039); assay: Cerep binding, agonist radioligand; conditions: read-out: % Inhibition of Control Specific Binding
T9 construct: purchased Eurofins Pharma Discovery Services (CEREP diversity panel)

NK2 (h) = biological target: T10, NK2 (h) (Homo sapiens, UniProt P21452); assay: Cerep binding, agonist radioligand; conditions: read-out: % Inhibition of Control Specific Binding
T10 construct: purchased Eurofins Pharma Discovery Services (CEREP diversity panel)

NK3 (h) = biological target: T11, NK3 (h) (Homo sapiens, UniProt P29371); assay: Cerep binding, antagonist radioligand; conditions: read-out: % Inhibition of Control Specific Binding
T11 construct: purchased Eurofins Pharma Discovery Services (CEREP diversity panel)

Y (non-selective) = assay: Cerep binding, agonist radioligand; conditions: 5 µM
[1] = biological target: T12, N neuronal alpha 4beta 2 (h) (Homo sapiens, UniProt P17787+P43681); assay: Cerep binding, agonist radioligand; conditions: read-out: % Inhibition of Control Specific Binding
T12 construct: purchased Eurofins Pharma Discovery Services (CEREP diversity panel)
T12 sequence (P43681 29-627 limits assumed): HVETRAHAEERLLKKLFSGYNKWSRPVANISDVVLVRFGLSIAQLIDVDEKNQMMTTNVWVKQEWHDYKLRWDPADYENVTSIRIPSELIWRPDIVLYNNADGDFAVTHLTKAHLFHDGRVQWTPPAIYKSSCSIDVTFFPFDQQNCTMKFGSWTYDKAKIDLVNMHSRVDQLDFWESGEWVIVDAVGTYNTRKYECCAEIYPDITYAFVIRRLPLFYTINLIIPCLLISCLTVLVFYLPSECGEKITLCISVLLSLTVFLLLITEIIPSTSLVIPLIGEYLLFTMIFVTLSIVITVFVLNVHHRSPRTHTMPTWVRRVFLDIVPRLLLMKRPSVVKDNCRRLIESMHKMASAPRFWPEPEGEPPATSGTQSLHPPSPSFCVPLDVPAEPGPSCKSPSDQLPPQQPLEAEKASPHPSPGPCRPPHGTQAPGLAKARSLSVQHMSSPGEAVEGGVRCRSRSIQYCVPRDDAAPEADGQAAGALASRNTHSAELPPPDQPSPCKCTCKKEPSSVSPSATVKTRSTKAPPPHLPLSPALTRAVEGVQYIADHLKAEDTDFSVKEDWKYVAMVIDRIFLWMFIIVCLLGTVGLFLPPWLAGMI
T12 sequence (P17787 26-502): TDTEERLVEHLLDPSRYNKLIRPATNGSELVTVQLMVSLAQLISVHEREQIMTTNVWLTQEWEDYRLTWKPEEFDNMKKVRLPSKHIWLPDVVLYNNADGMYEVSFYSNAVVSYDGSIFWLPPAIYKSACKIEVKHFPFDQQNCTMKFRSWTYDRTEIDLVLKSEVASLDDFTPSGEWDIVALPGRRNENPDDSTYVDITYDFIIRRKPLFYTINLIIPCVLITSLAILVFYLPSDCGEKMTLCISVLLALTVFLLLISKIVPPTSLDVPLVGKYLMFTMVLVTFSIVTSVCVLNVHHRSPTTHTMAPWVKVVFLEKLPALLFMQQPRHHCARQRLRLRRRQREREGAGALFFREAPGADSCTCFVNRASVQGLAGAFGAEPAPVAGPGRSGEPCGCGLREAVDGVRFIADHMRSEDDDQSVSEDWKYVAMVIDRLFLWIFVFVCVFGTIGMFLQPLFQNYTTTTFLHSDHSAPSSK

opioid (non-selective) = assay: Cerep binding, antagonist radioligand; conditions: 5 µM
PPARgamma (h) = biological target: T13, PPARgamma (h) (Homo sapiens, UniProt P37231); assay: Cerep binding, agonist radioligand; conditions: read-out: % Inhibition of Control Specific Binding
T13 construct: purchased Eurofins Pharma Discovery Services (CEREP diversity panel)

ER (non-selective) (h) = assay: Cerep binding, agonist radioligand; parameters: species or system human; conditions: 5 µM
AR (h) = biological target: T14, AR (h) (Homo sapiens, UniProt P10275, T878A); assay: Cerep binding, agonist radioligand; conditions: read-out: % Inhibition of Control Specific Binding
T14 construct: purchased Eurofins Pharma Discovery Services (CEREP diversity panel)

V2 (h) = biological target: T15, V2 (h) (Homo sapiens, UniProt P30518); assay: Cerep binding, agonist radioligand; conditions: read-out: % Inhibition of Control Specific Binding
T15 construct: purchased Eurofins Pharma Discovery Services (CEREP diversity panel)

[2] = system: Ca2+ channel (L, diltiazem site) (benzothiazepines); assay: Cerep binding, antagonist radioligand; conditions: 5 µM
KATP channel = assay: Cerep binding, antagonist radioligand; conditions: 5 µM
SKCa channel = assay: Cerep binding, antagonist radioligand; conditions: 5 µM
Cl- channel (GABA-gated) = assay: Cerep binding, antagonist radioligand; conditions: 5 µM
GABA transporter = assay: Cerep binding, antagonist radioligand; conditions: 5 µM
5-HT transporter (h) = biological target: T16, 5-HT transporter (h) (Homo sapiens, UniProt P31645); assay: Cerep binding, antagonist radioligand; conditions: read-out: % Inhibition of Control Specific Binding
T16 construct: purchased Eurofins Pharma Discovery Services (CEREP diversity panel)

PDE1B (h) = biological target: T17, PDE1B (h) (Homo sapiens, UniProt Q01064); assay: Cerep enzyme and cell-based assays; format: biochemical; conditions: read-out: % Inhibition of Control Values
T17 construct: purchased Eurofins Pharma Discovery Services (CEREP diversity panel)
T17 sequence (Q01064 whole entry): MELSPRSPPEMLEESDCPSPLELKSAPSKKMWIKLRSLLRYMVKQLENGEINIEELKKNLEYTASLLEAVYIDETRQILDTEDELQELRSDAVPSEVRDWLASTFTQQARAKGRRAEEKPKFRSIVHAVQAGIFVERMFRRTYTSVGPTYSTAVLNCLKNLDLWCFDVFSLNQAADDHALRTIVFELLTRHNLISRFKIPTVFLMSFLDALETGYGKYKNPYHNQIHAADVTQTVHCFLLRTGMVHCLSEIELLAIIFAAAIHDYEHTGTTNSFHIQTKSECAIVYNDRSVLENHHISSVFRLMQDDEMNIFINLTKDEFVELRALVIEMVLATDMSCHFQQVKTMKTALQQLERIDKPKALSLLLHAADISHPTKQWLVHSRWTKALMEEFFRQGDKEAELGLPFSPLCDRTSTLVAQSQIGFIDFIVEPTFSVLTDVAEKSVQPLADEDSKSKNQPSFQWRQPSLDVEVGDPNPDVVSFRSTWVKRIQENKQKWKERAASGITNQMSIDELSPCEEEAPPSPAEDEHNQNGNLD

PDE4D2 (h) = biological target: T18, PDE4D2 (h) (Homo sapiens, UniProt Q08499); assay: Cerep enzyme and cell-based assays; format: biochemical; conditions: read-out: % Inhibition of Control Values
T18 construct: Eurofins Pharma Discovery Services (CEREP diversity panel, outsourced assay)

PKCalpha (h) = biological target: T19, PKCalpha (h) (Homo sapiens, UniProt P17252); assay: Cerep enzyme and cell-based assays; format: biochemical; conditions: read-out: % Inhibition of Control Values
T19 construct: Eurofins Pharma Discovery Services (CEREP diversity panel, outsourced assay)

Eg5 (h) = biological target: T20, Eg5 (h) (Homo sapiens, UniProt P52732); assay: Cerep enzyme and cell-based assays; format: biochemical; conditions: read-out: % Inhibition of Control Values
T20 construct: Eurofins Pharma Discovery Services (CEREP diversity panel, outsourced assay)
T20 sequence (P52732 whole entry): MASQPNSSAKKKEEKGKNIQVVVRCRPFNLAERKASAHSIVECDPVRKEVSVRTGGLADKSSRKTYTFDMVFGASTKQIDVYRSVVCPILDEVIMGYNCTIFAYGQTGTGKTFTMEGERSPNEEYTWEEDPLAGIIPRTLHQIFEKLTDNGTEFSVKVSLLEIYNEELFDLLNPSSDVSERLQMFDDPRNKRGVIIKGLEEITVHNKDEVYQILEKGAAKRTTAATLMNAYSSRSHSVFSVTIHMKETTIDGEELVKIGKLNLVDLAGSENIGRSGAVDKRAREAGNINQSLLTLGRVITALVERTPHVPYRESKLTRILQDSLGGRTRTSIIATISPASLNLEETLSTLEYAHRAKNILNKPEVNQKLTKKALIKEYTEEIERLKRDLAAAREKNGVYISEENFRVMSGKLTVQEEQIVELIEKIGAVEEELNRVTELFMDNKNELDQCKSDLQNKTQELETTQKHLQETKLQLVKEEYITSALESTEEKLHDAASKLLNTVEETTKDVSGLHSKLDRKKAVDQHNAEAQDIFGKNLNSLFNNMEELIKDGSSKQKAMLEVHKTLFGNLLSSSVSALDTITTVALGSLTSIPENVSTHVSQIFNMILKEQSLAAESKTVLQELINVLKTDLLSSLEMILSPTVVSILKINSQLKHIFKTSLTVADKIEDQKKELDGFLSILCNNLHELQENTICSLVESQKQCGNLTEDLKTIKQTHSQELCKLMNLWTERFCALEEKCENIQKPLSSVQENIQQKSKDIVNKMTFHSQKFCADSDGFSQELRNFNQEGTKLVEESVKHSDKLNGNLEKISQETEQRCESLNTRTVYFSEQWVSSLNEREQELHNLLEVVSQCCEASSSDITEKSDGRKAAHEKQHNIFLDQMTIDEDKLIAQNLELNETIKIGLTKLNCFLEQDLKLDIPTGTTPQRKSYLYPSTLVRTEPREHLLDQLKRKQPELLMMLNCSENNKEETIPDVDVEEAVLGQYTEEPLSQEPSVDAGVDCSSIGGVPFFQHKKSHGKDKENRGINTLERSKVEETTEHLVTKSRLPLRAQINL

[3] = biological target: T21, sirtuin 2 (h) (inhibitor effect) (Homo sapiens, UniProt Q8IXJ6); assay: Cerep enzyme and cell-based assays; format: biochemical; conditions: read-out: % Inhibition of Control Values
T21 construct: Eurofins Pharma Discovery Services (CEREP diversity panel, outsourced assay)
T21 sequence (Q8IXJ6 whole entry): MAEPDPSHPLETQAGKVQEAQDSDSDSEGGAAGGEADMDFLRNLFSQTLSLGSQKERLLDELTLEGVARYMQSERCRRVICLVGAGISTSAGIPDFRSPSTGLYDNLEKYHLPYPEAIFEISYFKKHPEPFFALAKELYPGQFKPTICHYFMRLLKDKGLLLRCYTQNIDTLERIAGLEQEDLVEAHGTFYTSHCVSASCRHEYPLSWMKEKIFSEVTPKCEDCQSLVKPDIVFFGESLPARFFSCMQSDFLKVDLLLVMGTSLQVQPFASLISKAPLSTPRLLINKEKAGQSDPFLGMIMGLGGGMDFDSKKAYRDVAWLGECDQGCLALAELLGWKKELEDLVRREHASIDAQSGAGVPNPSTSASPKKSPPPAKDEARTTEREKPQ

Panc-Tu-I cells = assay: long-term time-lapse microscopy; conditions: 72 h, 5 μM Deltarasin or 10 μM Deltazinone 1
Erk phosphorylation = assay: western blot, Erk phosphorylation in Panc-Tu-I
Protocol: (§2) To examine whether PDEδ inhibition by Deltarasin and Deltazinone 1 downregulates the signal transduction via these pathways, we examined the phosphorylation of extracellular signal regulated kinase (Erk) and S6 Ribosomal Protein (S6P) in the oncogenic KRas-dependent Panc-Tu-1 and KRas-independent PANC-1 cells. […] Cells were lysed with RIPA-buffer (20 mM Tris pH 7.5, 150 mM NaCl, 0.5 mM Na2 EDTA, 1 % sodium deoxycholate, 0.1% sodium dodecyl sulfate, 1% IGEPAL supplemented with Complete Mini EDTA-free protease inhibitor (Roche Applied Science) and 1% phosphatase inhibitor cocktail 2 and 3 (P5726 and P0044, Sigma Aldrich), scraped off after 5 min on ice and centrifuged at 14,000g for 20 min at 4 °C. SDS–polyacrylamide gel electrophoresis was carried out with 10–25 μg of whole-cell lysate from each sample. The gels were blotted onto polyvinylidene difluoride membrane (Millipore) and blocked for 1 h at room temperature. […] Blots were scanned on a LI-COR Odyssey imaging system.
(§3) Western blots were quantified using ImageJ. The background of the blots was subtracted by applying the rolling ball subtraction with a radius of 50 pixels. Afterwards the integrated intensity of the bands was measured.

S6P phosphorylation = assay: western blot, S6P phosphorylation in Panc-Tu-I; conditions: for EGF-induced S6P phosphorylation: 1 h, 5 μM Deltarasin or 20 μM Deltazinone 1, 5 min EGF
Protocol: as §2, §3

[4] = 20 μM, longer incubation times (>3 h)
[5] = 1 h, 5 μM Deltarasin or 20 μM Deltazinone 1, 5 min EGF

Cc1ccc(-n2nc3c(=O)n(CCCC(=O)NCC(C)c4ccccc4)nc(C)c3c2C)cc1 (centres unmarked) [2k]
effect on growth (BxPC-3 cells; BxPC-3, doses up to 24 μM): little or no growth inhibitory effect
effect on growth (PANC-1 cells; PANC-1, doses up to 24 μM): little or no growth inhibitory effect
inhibition at 5 µM (A1 (h)): 0%
inhibition at 5 µM (A3 (h)): 59%
% Inhibition of Control Specific Binding (alpha 1 (non-selective)): 4%
% Inhibition of Control Specific Binding (alpha 2 (non-selective)): 3%
inhibition at 5 µM (beta 1 (h)): -1%
% Inhibition of Control Specific Binding (BZD (central)): -24%
inhibition at 5 µM (CB1 (h)): -12%
inhibition at 5 µM (CRF1 (h)): -43%
inhibition at 5 µM (D1 (h)): 2%
% Inhibition of Control Specific Binding (AMPA): 2%
% Inhibition of Control Specific Binding (NMDA): 1%
inhibition at 5 µM (H2 (h)): 5%
inhibition at 5 µM (BLT1 (LTB4) (h)): 16%
inhibition at 5 µM (MT1 (ML1A) (h)): 22%
inhibition at 5 µM (NK2 (h)): -4%
inhibition at 5 µM (NK3 (h)): 17%
% Inhibition of Control Specific Binding (Y (non-selective)): -19%
inhibition at 5 µM [1]: -8%
% Inhibition of Control Specific Binding (opioid (non-selective)): 42%
inhibition at 5 µM (PPARgamma (h)): -14%
% Inhibition of Control Specific Binding (ER (non-selective) (h)): -15%
inhibition at 5 µM (AR (h)): 5%
inhibition at 5 µM (V2 (h)): -4%
% Inhibition of Control Specific Binding [2]: -4%
% Inhibition of Control Specific Binding (KATP channel): 16%
% Inhibition of Control Specific Binding (SKCa channel): 0%
% Inhibition of Control Specific Binding (Cl- channel (GABA-gated)): 17%
% Inhibition of Control Specific Binding (GABA transporter): -1%
inhibition at 5 µM (5-HT transporter (h)): -8%
inhibition at 5 µM (PDE1B (h)): 7%
inhibition at 5 µM (PDE4D2 (h)): 3%
inhibition at 5 µM (PKCalpha (h)): 7%
inhibition at 5 µM (Eg5 (h)): 3%
inhibition at 5 µM [3]: 6%
cell death in time-lapse microscopy (Panc-Tu-I cells): cell death
EGF-induced Erk phosphorylation (Erk phosphorylation; [4]): reduced
EGF-induced Erk phosphorylation (Erk phosphorylation; [5]): did not significantly affect
S6P phosphorylation (S6P phosphorylation; [4]): further decreased
EGF-induced S6P phosphorylation (S6P phosphorylation): reduced S6P phosphorylation

c1ccc(Cn2c(-c3ccc(OC[C@H](C4CCNCC4)n4c(-c5ccccc5)nc5ccccc54)cc3)nc3ccccc32)cc1 [Deltarasin, reference compound]
concentration resulting in rapid cell death (unspecific cytotoxicity) (BxPC-3 cells; human): above 9 μM
concentration resulting in rapid cell death (unspecific cytotoxicity) (PANC-1 cells; human): above 9 μM
inhibition at 5 µM (A1 (h)): 37%
inhibition at 5 µM (A3 (h)): 70%
% Inhibition of Control Specific Binding (alpha 1 (non-selective)): 33%
% Inhibition of Control Specific Binding (alpha 2 (non-selective)): 1%
inhibition at 5 µM (beta 1 (h)): 21%
% Inhibition of Control Specific Binding (BZD (central)): -17%
inhibition at 5 µM (CB1 (h)): 7%
inhibition at 5 µM (CRF1 (h)): 34%
inhibition at 5 µM (D1 (h)): 99%
% Inhibition of Control Specific Binding (AMPA): 17%
% Inhibition of Control Specific Binding (NMDA): 11%
inhibition at 5 µM (H2 (h)): 38%
inhibition at 5 µM (BLT1 (LTB4) (h)): 19%
inhibition at 5 µM (MT1 (ML1A) (h)): 28%
inhibition at 5 µM (NK2 (h)): 97%
inhibition at 5 µM (NK3 (h)): 61%
% Inhibition of Control Specific Binding (Y (non-selective)): 10%
inhibition at 5 µM [1]: -10%
% Inhibition of Control Specific Binding (opioid (non-selective)): 12%
inhibition at 5 µM (PPARgamma (h)): 21%
% Inhibition of Control Specific Binding (ER (non-selective) (h)): -19%
inhibition at 5 µM (AR (h)): -23%
inhibition at 5 µM (V2 (h)): 20%
% Inhibition of Control Specific Binding [2]: 61%
% Inhibition of Control Specific Binding (KATP channel): -10%
% Inhibition of Control Specific Binding (SKCa channel): 3%
% Inhibition of Control Specific Binding (Cl- channel (GABA-gated)): 2%
% Inhibition of Control Specific Binding (GABA transporter): 20%
inhibition at 5 µM (5-HT transporter (h)): 39%
inhibition at 5 µM (PDE1B (h)): 12%
inhibition at 5 µM (PDE4D2 (h)): 7%
inhibition at 5 µM (PKCalpha (h)): 66%
inhibition at 5 µM (Eg5 (h)): 9%
inhibition at 5 µM [3]: 15%
cell death in time-lapse microscopy (Panc-Tu-I cells): cell death
EGF-induced Erk phosphorylation (Erk phosphorylation; [5]): reduced
EGF-induced S6P phosphorylation (S6P phosphorylation): reduced in both lines
